Test results taken from patent publication US20250042911A1, “NOVEL BENZOPYRAN DERIVATIVE AND USE THEREOF” (SPARK BIOPHARMA, INC, priority 2021, published 2025).
Counter-ions that a name gives are not always drawn.

These molecules were tested on melanoma cells (B316F10) (assay: Tumor growth inhibition in C57BL/6 syngeneic mouse model implanted with melanoma cells). Conditions: 20 mg/kg orally once a day for 9 or 10 days; female C57BL/6 mice with implanted melanoma cells; tumor volume vs control group.
Format: in vivo
Description: The tumor growth inhibition effect of benzopyrene derivatives was evaluated in a C57BL/6 mouse tumor model (syngeneic mouse model) in which melanoma cells (B316F10) derived from C57BL/6 mice are implanted.
After the quarantine and acclimation period was over, a cell suspension prepared with 5×10^5 cells/0.1 mL PBS was filled into a disposable syringe and administered in an amount of 0.1 mL PBS/head subcutaneously to the right back of healthy test animals (female C57BL/6, 7 weeks old) for implantation. After cell line implantation, general symptoms were observed once daily during the engraftment and growth period. Animals with no abnormalities in their health and whose tumor volume reached 50 to 100 mm^3 when measured with a digital caliper were selected. Then, based on tumor volume and body weight, the groups were separated so that the average tumor volume per group was 70 to 100 mm^3. Ten (10) animals were separated per group, and 20 mg/kg of benzopyran derivatives were administered orally once a day for 9 or 10 days. Tumor volume was measured once every 2 or 3 days.
The measured tumor volume of the test compound administered groups was compared with that of the control group and is represented in Table 2 as the tumor growth inhibition (TGI, %).

Row | SMILES | TGI (%)
1 | CC(=O)c1ccc(-n2c(=O)n3n(c2=O)C2C(=CC3)C(C)(C)Oc3cc(OC(=O)N(C)CCC(=O)O)ccc32)cc1 (centres unmarked) [Example 92, sodium 3-((((2-(4-acetylphenyl)-7,7-dimethyl-1,3-dioxo-2,3,5,12b-tetrahydro-1H,7H-chromeno[4,3-c][1,2,4]triazolo[1,2-a]pyridazin-10-yl)oxy)carbonyl)(methyl)amino)propanoate] | 25.5

Same assay, conditions: Mus musculus, po, 20 mg/kg orally once a day for 9 or 10 days; female C57BL/6 mice with implanted melanoma cells; tumor volume vs control group; read-out: TGI (%)

Row | SMILES | inhibition in vivo at 20 mg/kg [%]
2 | CC1(C)Oc2cc(N3CCCC3)ccc2C2C1=CCn1c(=O)n(-c3ccc(C(=O)O)cc3)c(=O)n12 (centres unmarked) [Example 44, 4-(7,7-dimethyl-1,3-dioxo-10-(pyrrolidin-1-yl)-5,12b-dihydro-1H,7H-chromeno[4,3-c][1,2,4]triazolo[1,2-a]pyridazin-2(3H)-yl)benzoic acid] | 25 to 66
3 | CC(=O)Oc1ccc2c(c1)OC(C)(C)C1=CCn3c(=O)n(-c4ccc(C(C)=O)cc4)c(=O)n3C12 (centres unmarked) [Example 60, 2-(4-acetylphenyl)-7,7-dimethyl-1,3-dioxo-2,3,5,12b-tetrahydro-1H,7H-chromeno[4,3-c][1,2,4]triazolo[1,2-a]pyridazin-10-yl acetate] | 56.5
4 | CC(=O)c1ccc(-n2c(=O)n3n(c2=O)C2C(=CC3)C(C)(C)Oc3cc(OP(=O)(O)O)ccc32)cc1 (centres unmarked) [Example 69, 2-(4-acetylphenyl)-7,7-dimethyl-1,3-dioxo-2,3,5,12b-tetrahydro-1H,7H-chromeno[4,3-c][1,2,4]triazolo[1,2-a]pyridazin-10-yl dihydrogen phosphate] | 25 to 66
5 | COCCOC(=O)Oc1ccc2c(c1)OC(C)(C)C1=CCn3c(=O)n(-c4ccc(C(C)=O)cc4)c(=O)n3C12 (centres unmarked) [Example 73, 2-(4-acetylphenyl)-7,7-dimethyl-1,3-dioxo-2,3,5,12b-tetrahydro-1H,7H-chromeno[4,3-c][1,2,4]triazolo[1,2-a]pyridazin-10-yl (2-methoxyethyl) carbonate] | 31
6 | CC(=O)c1ccc(-n2c(=O)n3n(c2=O)C2C(=CC3)C(C)(C)Oc3cc(OC(=O)N4CCCC4)ccc32)cc1 (centres unmarked) [Example 74, 2-(4-acetylphenyl)-7,7-dimethyl-1,3-dioxo-2,3,5,12b-tetrahydro-1H,7H-chromeno[4,3-c][1,2,4]triazolo[1,2-a]pyridazin-10-yl pyrrolidine-1-carboxylate] | 25 to 66
7 | COCCOCCOCCOCCOC(=O)Oc1ccc2c(c1)OC(C)(C)C1=CCn3c(=O)n(-c4ccc(C(C)=O)cc4)c(=O)n3C12 (centres unmarked) [Example 75, 2-(4-acetylphenyl)-7,7-dimethyl-1,3-dioxo-2,3,5,12b-tetrahydro-1H,7H-chromeno[4,3-c][1,2,4]triazolo[1,2-a]pyridazin-10-yl (2,5,8,11-tetraoxatridecan-13-yl) carbonate] | 25.5
8 | CC(=O)c1ccc(-n2c(=O)n3n(c2=O)C2C(=CC3)C(C)(C)Oc3cc(OC(=O)[C@@H](N)CC(C)C)ccc32)cc1 (stereo partly drawn) [Example 81, 2-(4-acetylphenyl)-7,7-dimethyl-1,3-dioxo-2,3,5,12b-tetrahydro-1H,7H-chromeno[4,3-c][1,2,4]triazolo[1,2-a]pyridazin-10-yl L-leucinate 2,2,2-trifluoroacetic acid] | 25 to 66
9 | CC(=O)c1ccc(-n2c(=O)n3n(c2=O)C2C(=CC3)C(C)(C)Oc3cc(OC(=O)N(C)CCC(=O)O)ccc32)cc1 (centres unmarked) [Example 91, 3-((((2-(4-acetylphenyl)-7,7-dimethyl-1,3-dioxo-2,3,5,12b-tetrahydro-1H,7H-chromeno[4,3-c][1,2,4]triazolo[1,2-a]pyridazin-10-yl)oxy)carbonyl)(methyl)amino)propanoic acid] | 25 to 66

The molecules below were run on human M2 macrophages (assay: Inhibition of human M2 macrophage activity, hCCL22 in culture supernatant by ELISA). Conditions: Macrophage, hCCL22 inhibitory activity at 10 μM, 72 hours.
Format: cell-based
Description: To obtain human M2 macrophages, human monocytes (THP-1 monocyte, CD4 expression) were stabilized in a 96-well plate for 24 hours and then incubated in culture media containing 100 ng/mL phorbal 12-myristate-13-acetate (PMA; Sigma, P8139) for 24 hours to differentiate into M0 macrophages (macrophage-like phenotype). It was confirmed that differentiated M0 macrophages had reduced CD4 expression and expressed CD11b. M0 macrophages in the plate well were washed once with culture media and incubated in culture media containing 25 ng/mL hIL-4 (Peprotech, 200-04-50) and 25 ng/mL hIL-13 (Peprotech, 200-13-50) for 72 hours to differentiate into M2-like macrophages. Test compounds were diluted by concentration in M2 differentiation media and treated simultaneously during a differentiation period of 72 hours. The inhibitory effect of the test compounds on M2 macrophages was determined by measuring hCCL22 in the medium culture supernatant cultured for 72 hours using an ELISA assay (R&D system, DMD00). The results of the activity measurements are represented in Table 3 (EC50), Table 4 ([…] inhibitory activity at 5 μM) and Table 5 (hCCL22 inhibitory activity at 10 μM).

Row | SMILES | inhibition at 10 µM [%]
10 | CC(=O)c1ccc(-n2c(=O)n3n(c2=O)C2C(=CC3)C(C)(C)Oc3cc(N4CCC4)ccc32)cc1 (centres unmarked) [Example 141, 2-(4-acetylphenyl)-10-(azetidin-1-yl)-7,7-dimethyl-5,12b-dihydro-1H,7H-chromeno[4,3-c][1,2,4]triazolo[1,2-a]pyridazine-1,3(2H)-dione] | 94.2

Same assay, conditions: hCCL22 secretion, THP-1 derived M2-like macrophages, compound present during 72 hours of differentiation

Row | SMILES | EC50 [µM]
11 | CC1(C)Oc2cc(N3CCCC3)ccc2C2C1=CCn1c(=O)n(-c3ccc(C(=O)O)cc3)c(=O)n12 (centres unmarked) [Example 44, 4-(7,7-dimethyl-1,3-dioxo-10-(pyrrolidin-1-yl)-5,12b-dihydro-1H,7H-chromeno[4,3-c][1,2,4]triazolo[1,2-a]pyridazin-2(3H)-yl)benzoic acid] | 9.5
12 | CC(=O)c1ccc(-n2c(=O)n3n(c2=O)C2C(=CC3)C(C)(C)Oc3cc(OC(=O)N4C(C)CNCC4C)ccc32)cc1 (centres unmarked) [Example 100, 2-(4-acetylphenyl)-7,7-dimethyl-1,3-dioxo-2,3,5,12b-tetrahydro-1H,7H-chromeno[4,3-c][1,2,4]triazolo[1,2-a]pyridazin-10-yl 2,6-dimethylpiperazine-1-carboxylate hydrochloride] | 15.9
13 | CC(=O)c1ccc(-n2c(=O)n3n(c2=O)C2C(=CC3)C(C)(C)Oc3cc(OC(=O)N4C(C)CN(C(=O)[C@@H]5CCCN5)CC4C)ccc32)cc1 (some centres unmarked) [Example 101, 2-(4-acetylphenyl)-7,7-dimethyl-1,3-dioxo-2,3,5,12b-tetrahydro-1H,7H-chromeno[4,3-c][1,2,4]triazolo[1,2-a]pyridazin-10-yl 2,6-dimethyl-4-prolylpiperazine-1-carboxylate hydrochloride] | 17.9
14 | CC(=O)c1ccc(-n2c(=O)n3n(c2=O)C2C(=CC3)C(C)(C)Oc3cc(OCP(=O)(O)O)ccc32)cc1 (centres unmarked) [Example 115, disodium (((2-(4-acetylphenyl)-7,7-dimethyl-1,3-dioxo-2,3,5,12b-tetrahydro-1H,7H-chromeno[4,3-c][1,2,4]triazolo[1,2-a]pyridazin-10-yl)oxy)methyl)phosphonate] | > 80
15 | CC(=O)c1ccc(-n2c(=O)n3n(c2=O)C2C(=CC3)C(C)(C)Oc3cc(OC(=O)N4CCNCC4(C)C)ccc32)cc1 (centres unmarked) [Example 118, 2-(4-acetylphenyl)-7,7-dimethyl-1,3-dioxo-2,3,5,12b-tetrahydro-1H,7H-chromeno[4,3-c][1,2,4]triazolo[1,2-a]pyridazin-10-yl 2,2-dimethylpiperazine-1-carboxylate hydrochloride] | 5.3
16 | CC(=O)c1ccc(-n2c(=O)n3n(c2=O)C2C(=CC3)C(C)(C)Oc3cc(OC(=O)N4CCN(C(=O)CN(C)C)CC4(C)C)ccc32)cc1 (centres unmarked) [Example 119, 2-(4-acetylphenyl)-7,7-dimethyl-1,3-dioxo-2,3,5,12b-tetrahydro-1H,7H-chromeno[4,3-c][1,2,4]triazolo[1,2-a]pyridazin-10-yl 4-(dimethylglycyl)-2,2-dimethylpiperazine-1-carboxylate hydrochloride] | 9.5
17 | CC(=O)c1ccc(-n2c(=O)n3n(c2=O)C2C(=CC3)C(C)(C)Oc3cc(N4CCC4)ccc32)cc1 (centres unmarked) [Example 141, 2-(4-acetylphenyl)-10-(azetidin-1-yl)-7,7-dimethyl-5,12b-dihydro-1H,7H-chromeno[4,3-c][1,2,4]triazolo[1,2-a]pyridazine-1,3(2H)-dione] | 7.2
18 | CC1(C)Oc2cc(OP(=O)(O)O)ccc2C2C1=CCn1c(=O)n(-c3ccc(C(F)(F)F)cc3)c(=O)n12 (centres unmarked) [Example 142, 7,7-dimethyl-1,3-dioxo-2-(4-(trifluoromethyl)phenyl)-2,3,5,12b-tetrahydro-1H,7H-chromeno[4,3-c][1,2,4]triazolo[1,2-a]pyridazin-10-yl dihydrogen phosphate] | 6.3
19 | CC1(C)Oc2cc(OP(=O)(O)O)ccc2C2C1=CCn1c(=O)n(-c3ccc(F)cc3)c(=O)n12 (centres unmarked) [Example 143, 2-(4-fluorophenyl)-7,7-dimethyl-1,3-dioxo-2,3,5,12b-tetrahydro-1H,7H-chromeno[4,3-c][1,2,4]triazolo[1,2-a]pyridazin-10-yl dihydrogen phosphate] | 9.4
20 | CC1(C)Oc2cc(OP(=O)(O)O)ccc2C2C1=CCn1c(=O)n(-c3ccc(C(C)(C)C)cc3)c(=O)n12 (centres unmarked) [Example 144, 2-(4-(tert-butyl)phenyl)-7,7-dimethyl-1,3-dioxo-2,3,5,12b-tetrahydro-1H,7H-chromeno[4,3-c][1,2,4]triazolo[1,2-a]pyridazin-10-yl dihydrogen phosphate] | 5.4
21 | CN(C)C(=O)Oc1ccc2c(c1)OC(C)(C)C1=CCn3c(=O)n(-c4ccc(C(F)(F)F)cc4)c(=O)n3C12 (centres unmarked) [Example 145, 7,7-dimethyl-1,3-dioxo-2-(4-(trifluoromethyl)phenyl)-2,3,5,12b-tetrahydro-1H,7H-chromeno[4,3-c][1,2,4]triazolo[1,2-a]pyridazin-10-yl dimethylcarbamate] | 77.3
22 | CN(C)C(=O)Oc1ccc2c(c1)OC(C)(C)C1=CCn3c(=O)n(-c4ccc(F)cc4)c(=O)n3C12 (centres unmarked) [Example 146, 2-(4-fluorophenyl)-7,7-dimethyl-1,3-dioxo-2,3,5,12b-tetrahydro-1H,7H-chromeno[4,3-c][1,2,4]triazolo[1,2-a]pyridazin-10-yl dimethylcarbamate] | > 80
23 | CN(C)C(=O)Oc1ccc2c(c1)OC(C)(C)C1=CCn3c(=O)n(-c4ccc(C(C)(C)C)cc4)c(=O)n3C12 (centres unmarked) [Example 147, 2-(4-(tert-butyl)phenyl)-7,7-dimethyl-1,3-dioxo-2,3,5,12b-tetrahydro-1H,7H-chromeno[4,3-c][1,2,4]triazolo[1,2-a]pyridazin-10-yl dimethylcarbamate] | > 80
